One assay addresses SUV39H2 (Homo sapiens (Human), UniProt Q9H5I1). Kind of assay: biochemical. As to conditions: 3H-SAM 100 nM, H3 Histone Peptide 350 nM, room temperature 3 hours. It is filed as biochemical. The gist of the method:
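Scintillation proximity format: reactions were halted with streptavidin SPA beads (50 μg/well final) after 3 h at room temperature with enzyme dosed by lot-specific activity.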

The subject of another assay is A549. Kind of assay: Cell-based assay, anti-proliferative activity (Cell Counting Kit-8, 72 hours). To be noted: Homo sapiens, read-out: A549 IC50. The gist of the method:
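Growth read-out after inhibitor treatment of plated cells; potency expressed as IC50.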

[1] abbreviates: A549 cells, 72 hours exposure, Cell Counting Kit-8.

Counter-ions that a name gives are not always drawn. Like-named read-outs stand apart in the source and are kept apart here.

In general, IC50 refers to the concentration needed to halve the response being measured.

SUV39H2, sequence (Q9H5I1 whole entry): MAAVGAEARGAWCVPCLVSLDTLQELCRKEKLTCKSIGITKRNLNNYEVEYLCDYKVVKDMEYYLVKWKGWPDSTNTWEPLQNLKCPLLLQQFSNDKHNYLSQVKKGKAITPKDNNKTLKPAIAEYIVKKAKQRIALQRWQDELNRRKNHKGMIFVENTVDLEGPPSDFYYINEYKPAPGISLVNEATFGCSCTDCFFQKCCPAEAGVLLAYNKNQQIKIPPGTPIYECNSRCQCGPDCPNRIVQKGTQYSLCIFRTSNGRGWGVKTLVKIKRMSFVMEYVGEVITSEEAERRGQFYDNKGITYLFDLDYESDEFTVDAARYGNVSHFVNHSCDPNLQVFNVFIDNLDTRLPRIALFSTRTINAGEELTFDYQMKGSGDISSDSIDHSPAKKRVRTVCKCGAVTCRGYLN

For `COc1cc(OC)c(-c2cn3ccc(NC4CCC(NCc5ccc(F)cc5)CC4)cc3n2)cc1Cl` (centres unmarked) [Example 320, (1r,4r)-N^1-(2-(5-chloro-2,4-dimethoxyphenyl)imidazo[1,2-a]pyridin-7-yl)-N^4-(4-fluorobenzyl)cyclohexane-1,4-diamine], the IC50 was found to be 95 nM against SUV39H2 and 430 nM in the assay on A549 (setting [1]).

Turning to `COc1cc(OC)c(-c2cn3ccc(N4CCC[C@H](NCC5CCCCC5)C4)cc3n2)cc1Cl` [Example 455, (S)-1-(2-(5-chloro-2,4-dimethoxyphenyl)imidazo[1,2-a]pyridin-7-yl)-N-(cyclohexylmethyl)piperidin-3-amine], the IC50 turned out to be 12.3 nM against SUV39H2 and 920 nM in the assay on A549 (setting [1]).

Turning to `COc1cc(OC)c(-c2cn3ccc(N4CCN(c5cc(N6CCN(C)CC6)ncn5)CC4)cc3n2)cc1Cl` [Example 377, 2-(5-chloro-2,4-dimethoxyphenyl)-7-(4-(6-(4-methylpiperazin-1-yl)pyrimidin-4-yl)piperazin-1-yl)imidazo[1,2-a]pyridine dihydrochloride], the IC50 at SUV39H2 turned out to be 14.4 nM; in the assay on A549 (A549, 72 h), 660 nM.

In the case of `COc1cc(OC)c(-c2cn3ccc(N4CCN(c5ncc([N+](=O)[O-])cc5C#N)CC4)cc3n2)cc1Cl` [Example 349, 2-(4-(2-(5-chloro-2,4-dimethoxyphenyl)imidazo[1,2-a]pyridin-7-yl)piperazin-1-yl)-5-nitronicotinonitrile], the IC50 was 14.9 nM against SUV39H2 and 610 nM with A549 (setting [1]).

For the compound `COc1cc(OC)c(-c2cn3ccc(N4CCN(c5nc(N)nc(N6CCCC6)n5)CC4)cc3n2)cc1Cl` [Example 431, 4-(4-(2-(5-chloro-2,4-dimethoxyphenyl)imidazo[1,2-a]pyridin-7-yl)piperazin-1-yl)-6-(pyrrolidin-1-yl)-1,3,5-triazin-2-amine], the IC50 on SUV39H2 stood at 88.4 nM; with A549 (setting [1]) it was 760 nM.

For `CNc1ccnc(N2CCN(c3ccn4cc(-c5cc(Cl)c(OC)cc5OC)nc4c3)CC2)n1` [Example 364, 2-(4-(2-(5-chloro-2,4-dimethoxyphenyl)imidazo[1,2-a]pyridin-7-yl)piperazin-1-yl)-N-methylpyrimidin-4-amine], the IC50 was 40.7 nM against SUV39H2 and 550 nM in the assay on A549 (A549, 72 h).

On to `COc1cc(OC)c(-c2cn3ccc(N4CCN(c5nccc(N6CCC(N)CC6)n5)CC4)cc3n2)cc1Cl` [Example 437, 1-(2-(4-(2-(5-chloro-2,4-dimethoxyphenyl)imidazo[1,2-a]pyridin-7-yl)piperazin-1-yl)pyrimidin-4-yl)piperidin-4-amine], for which the IC50 worked out at 15.9 nM against SUV39H2 and 740 nM with A549 (setting [1]).

Consider `COc1cc(OC(F)F)c(-c2cn3ccc(N4CC[C@H](NC(=O)OC(C)(C)C)C4)cc3n2)cc1Cl` [Example 408, (S)-tert-butyl (1-(2-(5-chloro-2-(difluoromethoxy)-4-methoxyphenyl)imidazo[1,2-a]pyridine-7-yl)pyrrolidin-3-yl)carbamate], for which the figures for the IC50 on SUV39H2 and in the assay on A549 (setting [1]) were 12.7 nM and 560 nM, respectively.

Regarding `COc1cc(OC)c(-c2cn3ccc(N[C@H]4C[C@H]5CC[C@@H](C4)N5C(=O)c4ccccc4)cc3n2)cc1Cl` [Example 457, ((1R,3r,5S)-3-((2-(5-chloro-2,4-dimethoxyphenyl)imidazo[1,2-a]pyridin-7-yl)amino)-8-azabicyclo[3.2.1]octan-8-yl)(phenyl)methanone], the IC50 against SUV39H2 is 34.8 nM; in the assay with A549 (setting [1]), 820 nM.

Take `COc1cc(OC)c(-c2cn3ccc(N[C@H]4CC[C@@H](N(C)Cc5ccccc5C)CC4)cc3n2)cc1Cl` [Example 348, cis-N^1-(2-(5-chloro-2,4-dimethoxyphenyl)imidazo[1,2-a]pyridin-7-yl)-N^4-methyl-N^4-(2-methylbenzyl)cyclohexane-1,4-diamine bis(2,2,2-trifluoroacetate)]: the IC50 against SUV39H2 turned out to be 31.2 nM; in the assay on A549 (setting [1]), 750 nM.

Regarding `COc1cc(OC)c(-c2cn3ccc(N[C@H]4CC[C@H](Nc5cncnc5)CC4)cc3n2)cc1Cl` [Example 337, (1r,4r)-N^1-(2-(5-chloro-2,4-dimethoxyphenyl)imidazo[1,2-a]pyridin-7-yl)-N^4-(pyrimidin-5-yl)cyclohexane-1,4-diamine], the results for the IC50 at SUV39H2 and with A549 (setting [1]) were 79.9 nM and 830 nM, respectively.

Consider `COc1cc(OC)c(-c2cn3ccc(N4CCN(c5cnc(N6CCOCC6)nc5)CC4)cc3n2)cc1Cl` [Example 335, 4-(5-(4-(2-(5-chloro-2,4-dimethoxyphenyl)imidazo[1,2-a]pyridin-7-yl)piperazin-1-yl)pyrimidin-2-yl)morpholine], for which the IC50 worked out at 68.5 nM on SUV39H2 and 690 nM in the assay on A549 (setting [1]).

Regarding `COc1cc(OC)c(-c2cn3ccc(N[C@H]4CC[C@H](NCc5ccccc5F)CC4)cc3n2)cc1Cl` [Example 414, (1r,4r)-N^1-(2-(5-chloro-2,4-dimethoxyphenyl)imidazo[1,2-a]pyridin-7-yl)-N^4-(2-fluorobenzyl)cyclohexane-1,4-diamine], the results for the IC50 on SUV39H2 and with A549 (setting [1]) were 84.8 nM and 820 nM, respectively.

Turning to `COc1cc(OC)c(-c2cn3ccc(N4CC[C@H](NC(C)C5CCN(C(=O)OC(C)(C)C)CC5)C4)cc3n2)cc1Cl` (stereo partly drawn) [Example 425, tert-butyl 4-(1-(((S)-1-(2-(5-chloro-2,4-dimethoxyphenyl)imidazo[1,2-a]pyridine-7-yl)pyrrolidin-3-yl)amino)ethyl)piperidine-1-carboxylate], the IC50 against SUV39H2 worked out at 57.9 nM; in the assay with A549 (setting [1]), 890 nM.

Regarding `COc1cc(OC)c(-c2cn3ccc(N4CCN(c5ccc(N)nc5)CC4)cc3n2)cc1Cl` [Example 323, 5-(4-(2-(5-chloro-2,4-dimethoxyphenyl)imidazo[1,2-a]pyridin-7-yl)piperazin-1-yl)pyridin-2-amine], the IC50 on SUV39H2 came to 30.4 nM; in the assay with A549 (setting [1]) it was 930 nM.

As for `COc1cc(OC)c(-c2cn3ccc(N4CCN(c5cncnc5)CC4)cc3n2)cc1Cl` [Example 317, 2-(5-chloro-2,4-dimethoxyphenyl)-7-(4-(pyrimidin-5-yl)piperazin-1-yl)imidazo[1,2-a]pyridine], the values for the IC50 against SUV39H2 and in the assay on A549 (setting [1]) were 11.6 nM and 650 nM, respectively.

As for `CNC1CCN(c2nccc(N3CCN(c4ccn5cc(-c6cc(Cl)c(OC)cc6OC)nc5c4)CC3)n2)C1` (centres unmarked) [Example 372, 1-(4-(4-(2-(5-chloro-2,4-dimethoxyphenyl)imidazo[1,2-a]pyridine-7-yl)piperazin-1-yl)pyrimidin-2-yl)-N-methylpyrrolidin-3-amine trihydrochloride], the IC50 against SUV39H2 was 18.3 nM; with A549 (A549, 72 h), 700 nM.

`COc1cc(OC)c(-c2cn3ccc(N4CCN(c5ccnc(NCC(C)O)n5)CC4)cc3n2)cc1Cl` (centres unmarked) [Example 399, 1-((4-(4-(2-(5-chloro-2,4-dimethoxyphenyl)imidazo[1,2-a]pyridine-7-yl)piperazin-1-yl)pyrimidin-2-yl)amino)propan-2-ol]: the figures for the IC50 against SUV39H2 and in the assay on A549 (setting [1]) were 11.7 nM and 660 nM, respectively.

With `COc1cc(OC)c(-c2cn3ccc(N4CCN(C(=O)CCCCNC(=O)OC(C)(C)C)CC4)cc3n2)cc1Cl` [Example 315, tert-butyl (5-(4-(2-(5-chloro-2,4-dimethoxyphenyl)imidazo[1,2-a]pyridin-7-yl)piperazin-1-yl)-5-oxopentyl)carbamate], the IC50 was 10.5 nM against SUV39H2 and 4400 nM with A549 (setting [1]).

For the origin of these results see patent US10508109B2 (priority 2015, dated 2019).
